The target in test [1] is T1, human B1R receptor (hB1R) (Homo sapiens, UniProt P46663).
T1 construct: expressed in transfected cells; host or cells: CHO K1 cells (Chinese hamster ovary), stably transfected
T1 sequence (P46663 1-353): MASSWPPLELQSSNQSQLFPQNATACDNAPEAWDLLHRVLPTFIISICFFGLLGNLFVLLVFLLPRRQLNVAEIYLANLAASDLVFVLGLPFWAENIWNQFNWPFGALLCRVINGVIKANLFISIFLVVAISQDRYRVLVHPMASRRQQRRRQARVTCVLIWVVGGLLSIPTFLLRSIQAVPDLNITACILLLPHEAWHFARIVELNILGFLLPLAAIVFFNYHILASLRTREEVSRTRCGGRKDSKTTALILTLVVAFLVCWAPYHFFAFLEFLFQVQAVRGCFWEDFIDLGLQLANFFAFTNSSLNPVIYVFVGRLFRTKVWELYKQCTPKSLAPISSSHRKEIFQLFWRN
The experiment in a line: Functional FLIPR Ca2+ assay on the bradykinin 1 receptor, human (hB1R CHO K1 cells). It counts as cell-based. Particulars: test substance 10 μM; CHO K1 cells transfected with human B1R gene; agonist Lys-Des-Arg9-bradykinin at EC80; % inhibition compared with maximum achievable inhibition; read-out: B1R antagonism, human (10 μM] % inhibition. The method, then: (§1) The agonistic or antagonistic action of substances can be quantified on the bradykinin 1 receptor (B1R) of the human and rat species with ectopically expressing cell lines (CHO K1 cells) and with the aid of a Ca^2+-sensitive dyestuff (Fluo-4) in a fluorescent imaging plate reader (FLIPR). The figure in % activation is based on the Ca^2+ signal after addition of Lys-Des-Arg^9-bradykinin (0.5 nM) or Des-Arg^9-bradykinin (100 nM). Antagonists lead to a suppression of the Ca^2+ inflow after addition of the agonist. % inhibition compared with the maximum achievable inhibition is stated.
(§2) The agonistic or antagonistic action of substances can be determined on the bradykinin 1 receptor (B1R) of the human and rat species with the following assay. In accordance with this assay, the Ca^2+ inflow through the channel is quantified with the aid of a Ca^2+-sensitive dyestuff (type Fluo-4, Molecular Probes Europe BV, Leiden, Holland) in a fluorescent imaging plate reader (FLIPR, Molecular Devices, Sunnyvale, USA).
(§3) Chinese hamster ovary cells (CHO K1 cells) transfected stably with the human B1R gene (hB1R cells) or the B1R gene of the rat (rB1R cells) are used. For functional studies, these cells are plated out on black 96-well plates with a clear base (BD Biosciences, Heidelberg, Germany or Greiner, Frickenhausen, Germany) in a density of 20,000-35,000 cells/well. The cells are left overnight at 37° C. and 5% CO2 in culture medium (hB1R cells: Nutrient Mixture Ham's F12, Gibco Invitrogen GmbH, Karlsruhe, Germany or DMEM, Sigma-Aldrich, Taufkirchen, Germany; rB1R cells: D-MEM/F12, Gibco Invitrogen GmbH, Karlsruhe, Germany) with 10 vol. % FBS (foetal bovine serum, Gibco Invitrogen GmbH, Karlsruhe, Germany or PAN Biotech GmbH, Aidenbach, Germany). On the following day, the cells are loaded for 60 min at 37° C. with 2.13 μM Fluo-4 (Molecular Probes Europe BV, Leiden, Holland) in HBSS buffer (Hank's buffered saline solution, Gibco Invitrogen GmbH, Karlsruhe, Germany) with 2.5 mM probenecid (Sigma-Aldrich, Taufkirchen, Germany) and 10 mM HEPES (Sigma-Aldrich, Taufkirchen, Germany). The plates are then washed 2× with HBSS buffer, and HBSS buffer which additionally contains 0.1% BSA (bovine serum albumin; Sigma-Aldrich, Taufkirchen, Germany), 5.6 mM glucose and 0.05% gelatine (Merck KgaA, Darmstadt, Germany) is added. After a further incubation of 20 minutes at room temperature, the plates are inserted into the FLIPR for the Ca^2+ measurement.
(§4) Alternatively, the plates are washed with buffer A (15 mM HEPES, 80 mM NaCl, 5 mM KCl, 1.2 mM CaCl2, 0.7 mM MgSO4, 2 g/l glucose, 2.5 mM probenecid), buffer A is added and the plates are loaded with 2.5 μM Fluo-4 and 0.025% Pluronic F127 (Sigma-Aldrich, Taufkirchen, Germany). Thereafter, the cells are washed 2× with buffer A and incubated for 30 minutes with buffer A, which additionally contains 0.05% BSA and 0.05% gelatine, at room temperature and thereafter inserted into the FLIPR for the Ca^2+ measurement. The Ca^2+-dependent fluorescence is measured here before and after addition of substances (λex=488 nm, λem=540 nm). Quantification is by measurement of the highest fluorescence intensity (FC, fluorescence counts) over time.
(§5) The FLIPR protocol consists of 2 additions of substance. Test substances (10 μM) are first pipetted on to the cells and the Ca^2+ inflow is compared with the control (hB1R: Lys-Des-Arg^9-bradykinin >=50 nM; rB1R: Des-Arg^9-bradykinin 10 μM). This gives the figure in % activation based on the Ca^2+ signal after addition of Lys-Des-Arg^9-bradykinin (>=50 nM) or Des-Arg^9-bradykinin (10 μM). After incubation for 10-20 minutes, Lys-Des-Arg^9-bradykinin (hB1R) or Des-Arg^9-bradykinin (rB1R) in the concentration of the EC80 is applied and the inflow of Ca^2+ is likewise determined. Antagonists lead to a suppression of the Ca^2+ inflow. % inhibition compared with the maximum achievable inhibition is calculated. In order to determine the IC50 value, the substances are added in various concentrations. […]

The target of test [2] is T2, B1R receptor of the rat (rB1R) (Rattus norvegicus, UniProt P97583).
T2 construct: expressed in transfected cells; host or cells: CHO K1 cells (Chinese hamster ovary), stably transfected
T2 sequence (P97583 1-337): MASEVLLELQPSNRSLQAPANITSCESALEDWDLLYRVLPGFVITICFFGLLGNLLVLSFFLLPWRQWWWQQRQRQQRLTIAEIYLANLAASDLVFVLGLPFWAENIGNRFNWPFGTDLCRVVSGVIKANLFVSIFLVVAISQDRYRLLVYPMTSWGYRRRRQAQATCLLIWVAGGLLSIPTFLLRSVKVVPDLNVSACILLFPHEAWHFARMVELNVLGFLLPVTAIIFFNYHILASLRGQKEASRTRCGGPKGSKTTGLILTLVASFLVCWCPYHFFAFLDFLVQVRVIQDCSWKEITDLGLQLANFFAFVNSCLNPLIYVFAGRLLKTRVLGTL
Kind of test: Functional FLIPR Ca2+ assay on the bradykinin 1 receptor, rat (rB1R CHO K1 cells). It counts as cell-based. Particulars: test substance 10 μM; CHO K1 cells transfected with rat B1R gene; agonist Des-Arg9-bradykinin at EC80; % inhibition compared with maximum achievable inhibition; read-out: B1R antagonism, rat [10 μM] % inhibition. The method, then:
as §1, §2, §3, §4, §5

On to `O=C(CC(NS(=O)(=O)c1ccc2ccccc2c1)c1ccccc1)N1CCc2nc(Cc3ccncc3)sc2C1` (racemic) [Example 42, N-(3-oxo-1-phenyl-3-(2-(pyridin-4-ylmethyl)-6,7-dihydrothiazolo[5,4-c]pyridin-5(4H)-yl)propyl)naphthalene-2-sulfonamide], for which the inhibition at 10 µM in test [1] came out at 14%; in test [2] it was 79%.
For `COc1cc(C)c(S(=O)(=O)N2CCCC[C@H]2COCC(=O)N2CCc3sc(CN4CCCN(C)CC4)cc3C2)c(C)c1` [Example 64, 2-[[(2S)-1-[(4-methoxy-2,6-dimethyl-phenyl)sulfonyl]-piperidin-2-yl]-methoxy]-1-[2-[(4-methyl-[1,4]diazepan-1-yl)-methyl]-4,5,6,7-tetrahydro-thieno[3,2-c]pyridin-5-yl]-ethanone], in test [1], the inhibition at 10 µM turned out to be 100%.
For `CN1CCN(Cc2cc3c(s2)CCN(C(=O)CCCC2CCCCN2S(=O)(=O)c2ccccc2C(F)(F)F)C3)CC1` (stereo not drawn) [Example 87, 1-[2-[(4-Methyl-piperazin-1-yl)-methyl]-4,5,6,7-tetrahydro-thieno[3,2-c]pyridin-5-yl]-4-[1-[[2-(trifluoromethyl)-phenyl]sulfonyl]-piperidin-2-yl]-butan-1-one], the inhibition at 10 µM in test [2] was 103%.
The same measure, in the same setting: then `O=C(CCCC1CCCCN1S(=O)(=O)c1ccccc1C(F)(F)F)N1CCc2[nH]cnc2C1c1ccccc1` (stereo not drawn) [Example 88, 1-(4-Phenyl-4,5,6,7-tetrahydro-1H-imidazo[4,5-c]pyridin-5-yl)-4-[1-[[2-(trifluoromethyl)-phenyl]sulfonyl]-piperidin-2-yl]-butan-1-one], with 65%; and `COc1cc(C)c(S(=O)(=O)N2c3ccccc3OCC2COCC(=O)N2CCc3sc(CN4CCN(C)CC4)cc3C2)c(C)c1` (stereo not drawn) [Example 91, 2-[[4-[(4-Methoxy-2,6-dimethyl-phenyl)sulfonyl]-3,4-dihydro-2H-[1,4]benzoxazin-3-yl]-methoxy]-1-[2-[(4-methyl-piperazin-1-yl)-methyl]-4,5,6,7-tetrahydro-thieno[3,2-c]pyridin-5-yl]-ethanone], with 103%; and `COc1cc(C)c(S(=O)(=O)N2c3ccccc3OCC2COCC(=O)N2CCc3[nH]cnc3C2c2ccccc2)c(C)c1` (stereo not drawn) [Example 92, 2-[[4-[(4-Methoxy-2,6-dimethyl-phenyl)sulfonyl]-3,4-dihydro-2H-[1,4]benzoxazin-3-yl]-methoxy]-1-(4-phenyl-4,5,6,7-tetrahydro-1H-imidazo[4,5-c]pyridin-5-yl)-ethanone], with 94%.
As to `CN1CCN(Cc2cc3c(s2)CCN(C(=O)COCC2COc4ccccc4N2S(=O)(=O)c2ccccc2C(F)(F)F)C3)CC1` (stereo not drawn) [Example 93, 1-[2-[(4-Methyl-piperazin-1-yl)-methyl]-4,5,6,7-tetrahydro-thieno[3,2-c]pyridin-5-yl]-2-[[4-[[2-(trifluoromethyl)-phenyl]sulfonyl]-3,4-dihydro-2H-[1,4]benzoxazin-3-yl]-methoxy]-ethanone], the inhibition at 10 µM in test [2] amounted to 93%.
On the same count and under the same terms, then `O=C(COCC1COc2ccccc2N1S(=O)(=O)c1ccccc1C(F)(F)F)N1CCc2[nH]cnc2C1c1ccccc1` (stereo not drawn) [Example 94, 1-(4-Phenyl-4,5,6,7-tetrahydro-1H-imidazo[4,5-c]pyridin-5-yl)-2-[[4-[[2-(trifluoromethyl)-phenyl]sulfonyl]-3,4-dihydro-2H-[1,4]benzoxazin-3-yl]-methoxy]-ethanone], with 36%; and `COc1cc(C)c(S(=O)(=O)N(C)CCOCC(=O)N2CCc3sc(CN4CCN(C)CC4)cc3C2)c(C)c1C` [Example 95, 4-Methoxy-N,2,3,6-tetramethyl-N-[2-[2-[2-[(4-methyl-piperazin-1-yl)-methyl]-4,5,6,7-tetrahydro-thieno[3,2-c]pyridin-5-yl]-2-oxo-ethoxy]-ethyl]-benzenesulfonic acid amide], with 99%; and `COc1cc(C)c(S(=O)(=O)N(C)CCOCC(=O)N2CCc3[nH]cnc3C2c2ccccc2)c(C)c1C` (stereo not drawn) [Example 96, 4-Methoxy-N,2,3,6-tetramethyl-N-[2-[2-oxo-2-(4-phenyl-4,5,6,7-tetrahydro-1H-imidazo[4,5-c]pyridin-5-yl)-ethoxy]-ethyl]-benzenesulfonic acid amide], with 54%.
Still for that read-out and setting: then `CN1CCN(Cc2cc3c(s2)CCN(C(=O)COCC2CCCCN2S(=O)(=O)c2ccccc2C(F)(F)F)C3)CC1` (stereo not drawn) [Example 97, 1-[2-[(4-Methyl-piperazin-1-yl)-methyl]-4,5,6,7-tetrahydro-thieno[3,2-c]pyridin-5-yl]-2-[[1-[[2-(trifluoromethyl)-phenyl]sulfonyl]-piperidin-2-yl]-methoxy]-ethanone], with 96%.
Turning to `O=C(COCC1CCCCN1S(=O)(=O)c1ccccc1C(F)(F)F)N1CCc2[nH]cnc2C1c1ccccc1` (stereo not drawn) [Example 98, 1-(4-Phenyl-4,5,6,7-tetrahydro-1H-imidazo[4,5-c]pyridin-5-yl)-2-[[1-[[2-(trifluoromethyl)-phenyl]sulfonyl]-piperidin-2-yl]-methoxy]-ethanone], the inhibition at 10 µM in test [2] turned out to be 98%.
Still for that read-out and setting: then `COc1cc(C)c(S(=O)(=O)N2CCCCC2COCCC(=O)N2CCc3sc(CN4CCN(C)CC4)cc3C2)c(C)c1` (stereo not drawn) [Example 99, 3-[[1-[(4-Methoxy-2,6-dimethyl-phenyl)sulfonyl]-piperidin-2-yl]-methoxy]-1-[2-[(4-methyl-piperazin-1-yl)-methyl]-4,5,6,7-tetrahydro-thieno[3,2-c]pyridin-5-yl]-propan-1-one], with 98%; and `COc1cc(C)c(S(=O)(=O)N2CCCCC2COCCC(=O)N2CCc3[nH]cnc3C2c2ccccc2)c(C)c1` (stereo not drawn) [Example 100, 3-[[1-[(4-Methoxy-2,6-dimethyl-phenyl)sulfonyl]-piperidin-2-yl]-methoxy]-1-(4-phenyl-4,5,6,7-tetrahydro-1H-imidazo[4,5-c]pyridin-5-yl)-propan-1-one], with 101%.

What is called inhibition is the drop in the measured response relative to a control, in per cent.

Source of the values: patent publication US8268814B2, “Substituted sulfonamide compounds” (Gruenenthal GmbH, priority 2008, dated 2012).
